Measurements taken from patent publication US7649016B2, “Antitumor medicine” (Nihon Starch Co., Ltd., priority 2003, dated 2010).

Columns and labels:
[1] = system: integrin (THP-1 cell adhesion); test: Number of adhered cells after phorbol ester (PMA) stimulation, function of integrin; assay type: cell-based, human; conditions: THP-1, 12.3 mM, one hour
Procedure: A 1,5-D-anhydrofructose solution (prepared by dissolving 1,5-D-anhydrofructose in DMSO) was added to the THP-1 cell culture medium, and the resulting medium was then stimulated by phorbol ester (PMA; phorbol myristate acetate). After the medium was cultured at 37° C. and a CO2 concentration of 5% for one hour, adhered cells were stained with a Giemsa staining method.
It is known that when leukemia cell lines are stimulated by phorbol ester (PMA), activation of adhesion molecule integrin is observed, and as a result, production of active oxygen, enhancement of cell adhesion and cell infiltration are induced as cell phenomena. Thus, THP-1 cell lines were cultured in the presence of 1,5-D-anhydrofructose, and the function of integrin was evaluated by use of the number of adherent cells after stimulation of the lines by phorbol ester as an index.

[2] = system: B16 melanoma cells in C57 BL/6 mice; test: Cancerous peritonitis model, survival of mice with B16 melanoma cells in the abdominal cavity; assay type: in vivo, mouse
Procedure: B16 melanoma cells (5×10^6 cells) were disseminated in the abdominal cavities of C57 BL/6 mice, PBS (phosphate buffer) and an ascopyrone P solution were then administered (dosage: 200 mg/kg) into the abdominal cavities every day from the 15th day, and the survival rates were examined (cancerous peritonitis model). It was confirmed that, in this experimental system, when the B16 melanoma cells were disseminated in the abdominal cavities of the mice in advance, the mice died from the 14th day or later when nothing or PBS was applied. The results of examining the life extending effect of ascopyrone P on terminal cancer models by use of the present experimental system are shown in FIG. 8. […] This indicates the antitumor effect in vivo of ascopyrone P.
As in Example 1, B16 melanoma cells (5×10^6 cells) were disseminated in the abdominal cavities of C57 BL/6 mice, and PBS and 1,5-D-anhydrofructose were administered (dosage: 200 mg/kg) into the abdominal cavities every day from the 2nd day. The average survival days after the tumor cells were disseminated were 19 days for those given 1,5-D-anhydrofructose and 14 days for those given PBS as controls.

B16 melanoma cells = test: Cell growth inhibition, number of living cells by crystal violet staining; assay type: cell-based, mouse; conditions: 0.70 mM final concentration, one week culture
Procedure: After B16 melanoma cells having multiplied on a 6-well plate were fixed by 2% glutaraldehyde, they were stained with 4% crystal violet, and stainable cells were determined to be living cells.
5×10^3 cells/ml of B16 melanoma cells (C57 BL/6 mouse melanoma cells) were disseminated into a 6-well plate. After the cells were attached to the bottom face (24 hours), an ascopyrone P solution (using DMSO as a solvent) was added in equal amounts to achieve a final concentration of 0 to 0.70 mM in the culture solutions. After the cells were cultured at 37° C. and a CO2 concentration of 5% for one week, the number of living cells was counted.

[3] = system: THP-1 (promyelocytic leukemia cells); test: Percentage of dead cells by PI staining/FACS; assay type: cell-based, human
Procedure: (§1) Adhesion cancer cell lines C57 BL/6 mouse melanoma cell lines (B16 melanoma), human lung adenocarcinoma cell lines (A549), human keratinocyte derived tumor-like cell lines (HaCaT) and human cervical cancer cell lines (Hela) were cultured at 37° C. and a CO2 concentration of 5% in DMEM media having 10% FCS (fetal calf serum) and 2% penicillin/streptomycin added thereto. Floating tumor cells THP-1 (promyelocytic leukemia cell lines) were cultured at 37° C. and a CO2 concentration of 5% in an RPMI 1640 medium containing 10% FCS and 2% penicillin/streptomycin.
(§2) The cell culture media were stimulated by ascopyrone P solutions (prepared by dissolving ascopyrone P in dimethyl sulfoxide (DMSO)) of various concentrations and cultured for a predetermined time. Thereafter, cells were collected in a floating state by use of trypsin. Then, the cells were fixed by 70% ethanol at 4° C. for 30 minutes and then stained with a 50 μg/ml propidium iodine (PI) solution. […]
(§3) In the examination, in addition to the B16 melanoma cells, 4 types of human cancer cell lines (THP-1: promyelocytic leukemia, HeLa: cervical cancer, A549: alveolar cell carcinoma, HaCaT: cutaneous cancer model cells) were examined for the proportion of dead cells induced by stimulation of ascopyrone P. To the cancer cell culture solutions, ascopyrone P was added to 1.4 mM, and the percentages of dead cells after 48 hours were determined.

[4] = system: HeLa (human cervical cancer cells); test: Percentage of dead cells and cell cycle by PI staining/FACS; assay type: cell-based; conditions: 1.4 mM
Procedure: as §1
(§4) The cell culture media were stimulated by ascopyrone P solutions (prepared by dissolving ascopyrone P in dimethyl sulfoxide (DMSO)) of various concentrations and cultured for a predetermined time. Thereafter, cells were collected in a floating state by use of trypsin. Then, the cells were fixed by 70% ethanol at 4° C. for 30 minutes and then stained with a 50 μg/ml propidium iodine (PI) solution. After 30 minutes, DNA histograms were prepared by use of an FACS to examine cell death percentages and cell cycles.
as §3
Therefore, when ascopyrone P is given to a living body as an antitumor medicine, it is expected that it specifically exerts a cell killing effect only on tumor cells without affecting normal cells most of which are conceived in the G0/1 period of the cell cycle.

[5] = system: A549 (human alveolar cell carcinoma); test: Percentage of dead cells by PI staining/FACS; DNA fragmentation; assay type: cell-based
Procedure: as §1, §2, §3

[6] = system: HaCaT (human keratinocyte derived tumor-like cells); test: Percentage of dead cells by PI staining/FACS; DNA fragmentation; FCS 10% vs FCS 1%; assay type: cell-based; conditions: 1.4 mM
Procedure: as §1, §4, §3
It is known that although HaCaT cells have characteristics of tumor cells in the presence of 10% FCS, they have characteristics close to those of normal cells in the presence of low-concentration FCS (1% or lower). By taking advantage of this characteristic, the influence of ascopyrone P on normal cells was examined.

[7] = system: B16 melanoma (C57 BL/6 mouse melanoma cells); test: Percentage of dead cells by PI staining/FACS; assay type: cell-based; conditions: 1.4 mM, after 48 hours
Procedure: as §1, §2, §3

[8] = system: B16 melanoma cells in C57 BL/6 mice; test: Subcutaneous B16 melanoma tumor volume and metastasis; assay type: in vivo, mouse; conditions: 25 mg/kg subcutaneously into tumor spots every other day, 3rd to 13th day
Procedure: Next, B16 melanoma cells (1×10^5 cells) were subcutaneously disseminated in the backs of C57 BL/6 mice, PBS and ascopyrone P were subcutaneously injected into tumor spots (using a solution of ascopyrone P dissolved in PBS in a dosage of 25 mg/kg) every other day from the 3rd day to the 13th day, and the antitumor effects were evaluated based on the volumes (long diameter×short diameter^2×0.52) of the tumors (FIG. 10). […] In general, it is said in clinical practice that an antitumor medicine with a lower tumor growing rate provides better prognosis.

In the case of `O=C1CO[C@H](CO)[C@@H](O)[C@@H]1O` [1,5-D-anhydrofructose], the “cell adhesion by phorbol ester (remaining)” value [1] is reported as “about 25%” and the “average survival days after the tumor cells were disseminated” value ([2]; 200 mg/kg into the abdominal cavity every day from the 2nd day, PBS controls 14 days) is reported as 19 days.

In the case of `O=C1CC(CO)OC=C1O` (stereo not drawn) [ascopyrone P, 2-hydroxymethyl-5-hydroxy-2,3-dihydro-4H-pyran-4-one], the “number of living cells (control DMSO = 100%)” value (B16 melanoma cells) is reported as no more than 50%, the cell death ([3]; THP-1, 0.35 mM, within 48 hours) is reported as “induced cell death” and the “Percentage of Dead Cells (%)” value ([3]; THP-1, 1.4 mM, after 48 hours) is reported as 33.3 ± 0.7%. For the same molecule, the “Percentage of Dead Cells (%)” value ([4]; after 48 hours) was 8.3 ± 2.0%, the “G2/M period cell population” value ([4]; FCS 10%, 24 hours) was “significant decrease” and the S-period cell population ([4]; FCS 10%, 24 hours) was “significant increase”. For the same molecule, the cell death ([4]; FCS 10%, 48 hours) was “about 10%”, the “Percentage of Dead Cells (%)” value ([5]; A549, 1.4 mM, after 48 hours) was 48.6 ± 3.8% and the “apoptosis-specific DNA fragmentation” value ([5]; A549 cells) was “the same result was also obtained”. The “apoptosis-specific DNA fragmentation” value ([6]; 48 hours, agarose gel electrophoresis) was “apoptosis-specific DNA fragmentation was observed”, the “Percentage of Dead Cells (%)” value ([6]; after 48 hours) was 27.2 ± 3.1% and the cell death ([6]; FCS 1% (normal-cell-like)) was “almost no cell death was observed”. For the same molecule, the cell death ([6]; FCS 10% (tumor-like growth), within 48 hours) was “about 30%”, the “Percentage of Dead Cells (%)” value [7] was 31.9 ± 3.6% and the “proportion of mice with 3 times or longer life time expansion than controls (PBS)” value ([2]; 200 mg/kg into the abdominal cavity every day from the 15th day) was 40%. For the same molecule, the average survival days ([2]; 200 mg/kg into the abdominal cavity every day from the 15th day, PBS controls 4 days) was 8 days, the “metastasis of tumors at dissection” value [8] was “hardly observed” and the “tumor volume versus PBS” value ([8]; from the 7th day and later) was “significantly smaller tumor volume”. The “tumor volume versus PBS” value ([8]; until the 7th day) was “no difference”.
